How the values were obtained:
[1] = system: BDNF protein in nodose ganglion (NG); experiment: BDNF ELISA of intact nodose ganglion after in vivo CX546 treatment; parameters: species or system mouse; conditions: CX546 40 mg/kg i.p. b.i.d. 3 days; for NG BDNF content: mean±SEM, n=6
Method: (§1) Beginning on P25, wildtype and Mecp2 null littermates were acclimatized to the injection protocol to reduce stress, first by handling for 10 min./day for 3 days, followed by saline injections (0.9% NaCl, i.p., b.i.d.) at 8:00 AM and 8:00 PM, for an additional 3 days. Subsequently, mice were assigned either to drug treatment (CX546, 40 mg/kg in 16.5% 2-hydroxypropyl-β-cyclodextrin, i.p., b.i.d.) or vehicle injections (cyclodextrin alone). On the day of their last injection, mice were trained in the plethysmograph recording chamber for one hour. Eighteen to 24 hours after their last injection, on P35, mice were returned to the chamber for recording of respiratory activity.
(§2) Breathing was recorded in unrestrained mice using a whole-body flow plethysmograph (Buxco II; Buxco Research Systems, Wilmington, N.C.) in which a constant bias flow supply connected to the animal recording chamber ensured continuous inflow of fresh air (1 L/min.). Ambient temperature was maintained between 23 and 25° C. Breathing traces were analyzed using Biosystem XA software (Buxco Research Systems). After the recording sessions, mice were euthanized with CO2 and tissue processed for BDNF immunoassay.
BDNF protein levels in intact NG or in cultured NG cells were measured by ELISA using the BDNF Emax Immunoassay System (Promega). Protein extracts from one intact NG or from an equivalent number of cultured cells were used for ELISA.
(§3) Wildtype and Mecp2 null littermates were treated for 3 days with CX546 (40 mg/kg in cyclodextrin, i.p., b.i.d.) or vehicle. Respiratory function was monitored by whole-body plethysmography 18-24 hours after the last injection, as described in Methods. At the end of the recording session the mice were sacrificed and the NG removed for BDNF ELISA. […] Treatment of wildtype mice with CX546 had no effect on NO BDNF content.

[2] = system: wildtype and Mecp2 null mice; experiment: Whole-body plethysmography of respiratory function after CX546 treatment; assay type: in vivo, mouse; conditions: for effect on breathing frequency and minute volume/weight: CX546 40 mg/kg b.i.d. 3 days; for breathing frequency / Coefficient of variation of breathing frequency / minute volume/weight / tidal volume/weight: CX546 40 mg/kg i.p. b.i.d. 3 days; for breathing frequency: 18-24 h after last injection
Method: as §1, §2, §3

[3] = in vivo; cited from earlier work

Compound	increase in BDNF protein content compared to vehicle-treated mutants ([1]; P35 Mecp2 null mice) [%]	NG BDNF content ([1]; P35 Mecp2 null mice) [pg BDNF/mL]	NG BDNF content ([1]; P35 wildtype mice) [pg BDNF/mL]	effect on NG BDNF content ([1]; wildtype mice)	effect on breathing frequency and minute volume/weight ([2]; P35 Mecp2 null mice)	breathing frequency ([2]; P35 Mecp2 null mice, n=9) [breath/min.]	Coefficient of variation of breathing frequency ([2]; P35 Mecp2 null mice, n=9) [%]	minute volume/weight ([2]; P35 Mecp2 null mice, n=9) [mL/min/g]	tidal volume/weight ([2]; P35 Mecp2 null mice, n=9) [µL/g]	breathing frequency ([2]; P35 wildtype mice, n=7) [breath/min.]	Coefficient of variation of breathing frequency ([2]; P35 wildtype mice, n=7) [%]	minute volume/weight ([2]; P35 wildtype mice, n=7) [mL/min/g]	tidal volume/weight ([2]; P35 wildtype mice, n=7) [µL/g]	effect on breathing frequency and minute volume/weight ([2]; wildtype mice)	half-life [3]	BDNF protein compared to unstimulated controls (NG neurons)
O=C(c1ccc2c(c1)OCCO2)N1CCCCC1 [CX546, 1-(1,4-benzodioxan-6-ylcarbonyl)piperidine]	42	114±4	167±5	no effect	completely restores wildtype frequency and minute volume/weight	176±8	23.4±1.5	1.13 ± 0.07	6.5 ± 0.3	177±6	18.5±1.2	1.14 ± 0.09	6.4 ± 0.5	no effect	less than an hour	
[Cl-].[K+] [KCI, potassium chloride]																significant increase
